Experimental data published in patent US5593970A, “Heterocyclic anthracycline analogs” (priority 1994, dated 1997).
Counter-ions that a name gives are not always drawn. Like-named read-outs stand apart in the source and are kept apart here.

What was measured:
Experiment in all cases: Microculture tetrazolium assay
Assay type in all cases: cell-based
[1] = tested on: SKOV3; settings: Homo sapiens, SK-OV-3, SKOV3
[2] = tested on: SKVLB; settings: for VLB/OV3: IC50 ratio SKVLB/SKOV3; for IC50: SKVLB
[3] = tested on: T47D; settings: Homo sapiens
[4] = tested on: LOX
[5] = tested on: HT29; settings: Homo sapiens, HT-29, HT29

Structure (SMILES)	IC50 ([1]; read-out: IC50) [µM]	IC50 ([2]; read-out: IC50) [µM]	IC50 ([3]; read-out: IC50) [µM]	IC50 ([4]; read-out: IC50) [µM]	IC50 ([5]; read-out: IC50) [µM]	IC50 [1] [µM]	VLB/OV3 [2]	IC50 [2] [µM]	IC50 [3] [µM]	IC50 [4] [µM]	IC50 [5] [µM]
CC[C@@H]1CC2=C(C(=O)c3cc4ccccc4c(O)c3C2=O)[C@@H](O[C@H]2C[C@H](N)[C@H](O)[C@H](C)O2)O1 [BCH-1614, (1'S,1R,3R)-5,12-dioxo-3-ethyl-6-hydroxy-1-(2',3',6'-trideoxy-3'-amino-4'-hydroxy-L-lyxohexopyranose)-3,4,5,12-tetrahydroanthraceno[2,3-c]pyran hydrochloride]	–	–	–	–	–	1.02	1.64	1.67	0.742	1.09	3.58
CC(=O)[C@@H]1CC2=C(C(=O)c3cc4ccccc4c(O)c3C2=O)[C@@H](O[C@H]2C[C@H](NC(=O)C(F)(F)F)[C@H](I)[C@H](C)O2)O1 [BCH-1617]	2.15	2.96	2.43	3.04	1.2	–	1.38	–	–	–	–
CC(=O)[C@H]1CC2=C(C(=O)c3cc4ccccc4c(O)c3C2=O)[C@H](O[C@H]2C[C@H](NC(=O)C(F)(F)F)[C@H](I)[C@H](C)O2)O1 [BCH-1618]	3.26	3.21	–	3.75	3.63	–	.098	–	3.66	–	–
CC(=O)Nc1nc([C@@H]2CC3=C(C(=O)c4cc5ccccc5c(O)c4C3=O)[C@@H](O[C@H]3C[C@H](NC(=O)C(F)(F)F)[C@H](O)[C@H](C)O3)O2)cs1 [BCH-1623, (1'S,1R,3S)-6-hydroxy-1-(2',3',6'-trideoxy-3'-trifluoroacetamido-L-lyxohexopyranose)-3-(2-aza-3-acetamido-thienyl)-5,12-dioxo-3,4,5,12-tetrahydro-anthraceno-[2,3-c]-pyran]	49.5	90.2	42.8	44.2	32.1	–	1.82	–	–	–	–
CC(=O)O[C@@H]1[C@H](C)O[C@@H](OC2OC(C(=O)CO)CC3=C2C(=O)c2cc4ccccc4c(O)c2C3=O)C[C@@H]1OC(C)=O (stereo partly drawn) [BCH-1626]	2.32	7.66	5.39	2.99	5.18	–	3.30	–	–	–	–
CC(=O)C1CC2=C(C(=O)c3cc4ccccc4c(O)c3C2=O)C(OCCNC(=O)OC(C)(C)C)S1 (stereo not drawn) [BCH-1627]	7.1	14	7.1	5	11	–	2.0	–	–	–	–
CC(=O)C1CC2=C(C(=O)c3cc4ccccc4c(O)c3C2=O)C(OCCN)S1 (stereo not drawn) [BCH-1628]	2.71	–	2.89	3.52	3.43	–	2.18	5.92	–	–	–
CC[C@H]1CC2=C(C(=O)c3cc4ccccc4c(O)c3C2=O)[C@H](O[C@H]2C[C@H](O)[C@H](O)[C@H](C)O2)O1 [BCH-1629]	6.7	–	9	7.4	22	–	2.8	19	–	–	–
CC[C@@H]1CC2=C(C(=O)c3cc4ccccc4c(O)c3C2=O)[C@@H](O[C@H]2C[C@H](O)[C@H](O)[C@H](C)O2)O1 [BCH-1630]	12	31	18	8.5	66	–	2.6	–	–	–	–
CC[C@H]1Cc2c(O)c3c(c(O)c2[C@H](O[C@H]2C[C@H](N)[C@H](O)[C@H](C)O2)O1)C(=O)c1ccccc1C3=O [BCH-1633]	0.245	0.47	0.735	0.201	0.0995	–	1.92	–	–	–	–
CC(=O)C1CC2=C(C(=O)c3cc4ccccc4c(O)c3C2=O)C(O[C@H]2C[C@H](NC(=O)C(F)(F)F)[C@@H](O)[C@H](C)O2)O1 (stereo partly drawn) [BCH-1637]	2.28	3.82	–	2.07	0.691	–	1.68	–	5.24	–	–
CC(=O)[C@@H]1CC2=C(C(=O)c3cc4ccccc4c(O)c3C2=O)[C@@H](O[C@H]2C[C@H](NC(=O)C(F)(F)F)[C@H](O)[C@H](C)O2)S1 [BCH-1641]	1.68	2.74	2	1.35	0.871	–	1.63	–	–	–	–
CC(=O)C1CC2=C(C(=O)c3cc4ccccc4c(O)c3C2=O)C(OC[C@H](O)CO)S1 (stereo partly drawn) [BCH-1645]	2.02	3.83	3.73	1.37	0.597	–	1.90	–	–	–	–
C[C@@H]1O[C@@H](O[C@H]2OCCC3=C2C(=O)c2cc4ccccc4c(O)c2C3=O)C[C@H](NC(=O)C(F)(F)F)[C@@H]1O [BCH-1646]	–	6.56	2.81	2.96	–	4.99	1.31	–	–	–	5.92
CCN(CC)C(=O)[C@H]1CC2=C(C(=O)c3cc4ccccc4c(O)c3C2=O)[C@H](O[C@H]2C[C@H](NC(=O)C(F)(F)F)[C@H](O)[C@H](C)O2)O1 [BCH-1653]	3.22	–	7.09	3.92	0.885	–	1.85	5.97	–	–	–
CCN(CC)C(=O)[C@@H]1CC2=C(C(=O)c3cc4ccccc4c(O)c3C2=O)[C@@H](O[C@H]2C[C@H](NC(=O)C(F)(F)F)[C@H](O)[C@H](C)O2)O1 [BCH-1656]	–	7.07	5.19	3.86	3.77	4.12	1.72	–	–	–	–

The next lines start with results.

IC50 ([1]; read-out: IC50) [µM]	IC50 ([2]; read-out: IC50) [µM]	IC50 ([3]; read-out: IC50) [µM]	IC50 ([4]; read-out: IC50) [µM]	IC50 ([5]; read-out: IC50) [µM]	Structure (SMILES)	IC50 [1] [µM]	VLB/OV3 [2]	IC50 [2] [µM]	IC50 [3] [µM]	IC50 [4] [µM]	IC50 [5] [µM]
85	100	100	100	100	CC(=O)[C@@H]1Cc2c(O)c3c(c(O)c2[C@@H](O[C@H]2C[C@H](O)[C@H](O)[C@H](C)O2)O1)C(=O)c1ccccc1C3=O [BCH-1624]	–	–	–	–	–	–
5.1	45	34	16	61	CC(=O)[C@H]1Cc2c(O)c3c(c(O)c2[C@H](O[C@H]2C[C@H](O)[C@H](O)[C@H](C)O2)O1)C(=O)c1ccccc1C3=O [BCH-1625]	–	8.8	–	–	–	–
1.99	3.18	3.11	1	0.876	CC(=O)C1CC2=C(C(=O)c3cc4ccccc4c(O)c3C2=O)C(O[C@H]2C[C@H](NC(=O)C(F)(F)F)[C@H](O)[C@H](C)O2)S1 (stereo partly drawn) [BCH-1635]	–	1.60	–	–	–	–
2.65	4.52	2.97	1.23	2.53	CC(=O)C1CC2=C(C(=O)c3cc4ccccc4c(O)c3C2=O)C(OC[C@H]2COC(C)(C)O2)S1 (stereo partly drawn) [BCH-1636]	–	1.71	–	–	–	–
> 100	> 100	> 100	> 100	> 100	CC(F)(F)C1CC2=C(CO1)C(=O)c1cc3ccccc3c(O)c1C2=O (stereo not drawn) [BCH-1638, 3-(1',1'-difluoroethyl)-6 and 11-hydroxy-1,2,3,4-tetrahydro-(2-oxygen)-naphthacene-5,12-dione]	–	–	–	–	–	–
> 100	> 100	> 100	> 100	> 100	CC(F)(F)C1CC2=C(CO1)C(=O)c1c(cc3ccccc3c1O)C2=O (stereo not drawn) [BCH-1639, 3-(1',1'-difluoroethyl)-6 and 11-hydroxy-1,2,3,4-tetrahydro-(2-oxygen)-naphthacene-5,12-dione]	–	–	–	–	–	–
3.59	6	0.871	3.24	2.5	C[C@@H]1O[C@@H](O[C@@H]2OCCC3=C2C(=O)c2cc4ccccc4c(O)c2C3=O)C[C@H](NC(=O)C(F)(F)F)[C@@H]1O [BCH-1647]	–	1.67	–	–	–	–
2.29	2.02	4.97	2.81	6.28	CC(=O)C1CC2=C(C(=O)c3cc4ccccc4c(O)c3C2=O)C(OC[C@@H]2COC(C)(C)O2)S1 (stereo partly drawn) [BCH-1660]	–	0.88	–	–	–	–
